Data published in PubChem BioAssay AID1918944 (Molecular Pharmacology Branch, DTP, NCI, 2023).

Tested on: 786-0 complex spheroid viability
Test: Anticancer human tumor 786-0 cell line growth inhibition;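 further: spheroids exposed to agents for seven days before readout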
Details: for IC50: curve of first compound; for viability, T/C: stronger effect = lower value
Procedure, shortened: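 Complex spheroids of tumor cells with HUVEC and human MSCs, exposed to iadademstat combined with other agents. Each agent tested in half-log steps from near clinical Cmax (else 10 microM top), DMSO ≤0.25%.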

[1] = second compound 0.1 µM, first compound 0.000316 µM
[2] = second compound 0.1 µM, first compound 0.001 µM
[3] = second compound 0.1 µM, first compound 0.00316 µM
[4] = second compound 0.1 µM, first compound 0.01 µM
[5] = second compound 0.1 µM, first compound 0.0316 µM
[6] = second compound 0.1 µM, first compound 0.1 µM
[7] = second compound 0.316 µM, first compound 0.000316 µM
[8] = second compound 0.316 µM, first compound 0.001 µM
[9] = second compound 0.316 µM, first compound 0.00316 µM
[10] = second compound 0.316 µM, first compound 0.01 µM
[11] = second compound 0.316 µM, first compound 0.0316 µM
[12] = second compound 0.316 µM, first compound 0.1 µM
[13] = second compound 1 µM, first compound 0.000316 µM
[14] = second compound 1 µM, first compound 0.001 µM
[15] = second compound 1 µM, first compound 0.00316 µM
[16] = second compound 1 µM, first compound 0.01 µM
[17] = second compound 1 µM, first compound 0.0316 µM
[18] = second compound 1 µM, first compound 0.1 µM
[19] = second compound 3.16 µM, first compound 0.000316 µM
[20] = second compound 3.16 µM, first compound 0.001 µM
[21] = second compound 3.16 µM, first compound 0.00316 µM
[22] = second compound 3.16 µM, first compound 0.01 µM
[23] = second compound 3.16 µM, first compound 0.0316 µM
[24] = second compound 3.16 µM, first compound 0.1 µM
[25] = second compound 10 µM, first compound 0.000316 µM
[26] = second compound 10 µM, first compound 0.001 µM
[27] = second compound 10 µM, first compound 0.00316 µM
[28] = second compound 10 µM, first compound 0.01 µM
[29] = second compound 10 µM, first compound 0.0316 µM
[30] = second compound 10 µM, first compound 0.1 µM

Row | Structure (SMILES) | IC50 (second compound 0.1 µM) [µM] | IC50 (second compound 0.316 µM) [µM] | IC50 (second compound 1 µM) [µM] | IC50 (second compound 3.16 µM) [µM] | IC50 (second compound 10 µM) [µM] | viability, T/C [3] [%] | viability, T/C [4] [%] | viability, T/C [5] [%] | viability, T/C [6] [%] | viability, T/C [9] [%] | viability, T/C [10] [%] | viability, T/C [11] [%] | viability, T/C [12] [%] | viability, T/C [15] [%] | viability, T/C [16] [%] | viability, T/C [17] [%] | viability, T/C [18] [%] | viability, T/C [21] [%] | viability, T/C [22] [%] | viability, T/C [23] [%] | other results
1 | CC[C@@]1(O)C(=O)OCc2c1cc1n(c2=O)Cc2cc3c(CN(C)C)c(O)ccc3nc2-1 + NC1CCC(NC2CC2c2ccccc2)CC1 | 0.00511 | 0.00513 | 0.0052 | 0.00439 | 0.00301 | 77.3 | 11.8 | 5.31 | 3.53 | 78.3 | 10.8 | 5.38 | 3.62 | 80 | 10.3 | 5.66 | 3.63 | 65.2 | 12.4 | 6.41 | viability, T/C [1]: 114%; viability, T/C [2]: 113%; viability, T/C [7]: 111%; viability, T/C [8]: 105%; viability, T/C [13]: 115%; viability, T/C [14]: 105%; viability, T/C [19]: 101%; viability, T/C [20]: 95.2%; viability, T/C [24]: 2.85%; viability, T/C [25]: 84%; viability, T/C [26]: 71.7%; viability, T/C [27]: 50.3%; viability, T/C [28]: 6.62%; viability, T/C [29]: 5.01%; viability, T/C [30]: 3.36%
2 | CC(C)CC(NC(=O)CNC(=O)c1cc(Cl)ccc1Cl)B1OC(=O)CC(CC(=O)O)(C(=O)O)O1 (stereo not given) + NC1CCC(NC2CC2c2ccccc2)CC1 | 0.0129 | 0.0107 | 0.012 | 0.00962 | 0.0102 | 110 | 52.4 | 32.4 | 9.25 | 121 | 51.6 | 30.7 | 8.11 | 112 | 52.3 | 34.1 | 10 | 107 | 46.7 | 29.5 | viability, T/C [1]: 127%; viability, T/C [2]: 123%; viability, T/C [7]: 129%; viability, T/C [8]: 130%; viability, T/C [13]: 113%; viability, T/C [14]: 128%; viability, T/C [19]: 109%; viability, T/C [20]: 112%; viability, T/C [24]: 9.53%; viability, T/C [25]: 96.8%; viability, T/C [26]: 91.4%; viability, T/C [27]: 82.1%; viability, T/C [28]: 50.1%; viability, T/C [29]: 19.7%; viability, T/C [30]: 7.29%
3 | CC1COCCN1c1cc(-c2ccnn2C)c2ccnc(-c3ccn[nH]3)c2n1 (stereo not given) + NC1CCC(NC2CC2c2ccccc2)CC1 | 0.0373 | 0.0369 | 0.0307 | 0.0224 | 0.0124 | 112 | 110 | 55.5 | 16.3 | 123 | 114 | 55.1 | 16.2 | 116 | 104 | 48.3 | 15.1 | 107 | 83.1 | 35.9 | viability, T/C (second compound 0.1 µM, first compound 0.316 µM): 8.21%; viability, T/C (second compound 0.1 µM, first compound 1 µM): 10.2%; viability, T/C (second compound 0.316 µM, first compound 0.316 µM): 7.09%; viability, T/C (second compound 0.316 µM, first compound 1 µM): 12.1%; viability, T/C (second compound 1 µM, first compound 0.316 µM): 5.97%; viability, T/C (second compound 1 µM, first compound 1 µM): 11.4%; viability, T/C [24]: 12.4%; viability, T/C (second compound 3.16 µM, first compound 0.316 µM): 5.34%; viability, T/C (second compound 3.16 µM, first compound 1 µM): 9.25%; viability, T/C [27]: 77.4%; viability, T/C [28]: 57%; viability, T/C [29]: 19.2%; viability, T/C [30]: 5.5%; viability, T/C (second compound 10 µM, first compound 0.316 µM): 3.62%; viability, T/C (second compound 10 µM, first compound 1 µM): 12%
